Laboratory results as given in patent US9012414B2, “Cosmetic composition” (Guerlain, priority 2010, dated 2015).
Entries after “also recorded” stand apart in the source; their conditions may differ.

Assays:
cytochrome C oxidase = assay: Stimulation of cytochrome C oxidase on modified human keratinocytes (HaCaT); assay type: cell-based; settings: for Activation of cytochrome C oxidase activity: HaCaT cells, treatment 3 h, positive control resveratrol 11.41 μg/ml (50 μM)
Procedure: The objective of the study is to evaluate the potential of the compounds which are the subject of the invention for stimulating the performance levels of the mitochondrial respiratory chain. The assays are carried out on genetically modified human keratinocytes (HaCaT).
The HaCaT cells were cultured in 6-well plates in RPMI 1640 medium (Roswell Park Memorial Institute) w/o HEPES (Invitrogen) supplemented with 10% of fetal calf serum (FCS, Invitrogen) and a penicillin/streptomycin mixture, until confluence. They were then treated, in DMEM (Dulbecco's Modified Eagle Medium, Invitrogen) containing 4.5 g/L of glucose, 0.1% BSA (Bovine Serum albumin AM2618 Invitrogen), with serial dilutions of vandaterosides (from 6.25 to 0.78 μg/ml) diluted in DMSO (0.1% v/v final concentration). Resveratrol (Sigma) at 50 μM, i.e. 11.41 μg/ml, was used as positive reference. The untreated cells containing 0.1% v/v of DMSO were considered to be a negative control. After treatment for 3 h, the cells were lysed (20 mM HEPES, 0.1% Triton, 1 mM EDTA) and the total cell proteins were assayed by means of the Bradford technique (B6916 Sigma). The total protein concentration of each sample was then adjusted to 2 mg/ml.
The cell lysate was incubated in the presence of an assay buffer (Sigma) in order to determine the enzymatic kinetics without the addition of substrate, denoted Vo. Cytochrome C (from equine heart C-7752 Sigma) reduced with DTT (dithiothreitol, Sigma) was added to the assay buffer at 50 μM in order to measure the rate of the enzymatic reaction. The disappearance of the reduced cytochrome C was monitored using a spectrophotometer [Beckman DU 640] at 550 nm for 90 seconds according to the manufacturer's (Sigma) instructions. The results were calculated from the enzymatic kinetics curves and are expressed as cytochrome C oxidase activity (U/μg of proteins).
The equations allowing the calculation of the enzymatic activities are the following: Enzymatic activity of cytochrome C in U/ml=ACOX=(DA/min)/21.84 with: • DA/min=A/min(v)−A/min (v0) • 21.84 (mM)=ε(molar extinction coefficient) of ferrocytochrome C at 550 nm • A=Absorbance at 550 nm • A/min(v)=Absorbance at 550 nm at time “v” in minutes, corresponding to the time of the measurement after the addition of the substrate; • A/min (v0)=Absorbance at 550 nm at time “v0” (at the start, i.e. before the addition of substrate) in minutes.
The results are expressed by comparison of the enzymatic activity measured in the presence of the vandaterosides (ACOX samples) relative to the control enzymatic activity (ACOX control): i.e. (ACOX samples)/(ACOX control).
A calculated (ACOX samples)/(ACOX control) ratio of greater than 1 indicates stimulation of the activity of cytochrome C oxidase in the presence of the samples.

HaCaT cells = assay: Measurement of mitochondrial biogenesis on modified human keratinocytes (HaCaT), qPCR of 16S and COX2 DNA versus UCP-2; assay type: cell-based; settings: 48 h
Procedure: The objective is to verify whether or not the increase in enzymatic activity measured is linked to a basal stimulation of the respiratory chain of the mitochondria initially present or to an increase in the number of intracellular mitochondria, indicative of a stimulation of mitochondrial biogenesis.
The HaCaT cells are cultured in 6-well plates and then treated as described above. After treatment for 48 h, the cells are lysed with a buffer consisting of 10 mM of Tris base, 1 mM EDTA, 0.3M of sodium acetate and 1% SDS (1 ml/well) and according to an incubation time of overnight at 55° C. The mitochondrial DNA is extracted from the cell lysate with a phenol solution (1/1 ratio). Two cycles of centrifugation at 4000 rpm (5 minutes) are carried out. A solution de CHCl3/isoamyl alcohol (24:1, v/v) is then added to the upper aqueous phase, recovered after settling out. The mixture is then centrifuged (5 minutes, 4000 rpm, 4° C.).
Precipitation of the total DNA is induced by adding an absolute ethanol/3M sodium acetate mixture ([…]) to the supernatant. After centrifugation (30 minutes, 12000 rpm, 4° C.), the pellets are washed with EtOH at 70° v/v, and then dried and taken up in deionized water. The DNA is assayed using a spectrometer (Thermo Scientific Nanodrop). The DNA solutions are adjusted to a concentration of 10 ng/μl.
The expression of three different genes is measured by qPCR. This technique makes it possible to measure the amount of DNA polymerized by means of a fluorescent label. […]
The fluorescence is measured after the 45 cycles and the amount of DNA obtained is determined by means of the DNA range.
The results are expressed in amount of 16S and COX2 (QCOX2) DNA, calculated according to the amount of UCP-2 genomic DNA (QUCP-2), and which is defined as (QCOX2)/(QUCP-2)
A calculated (QCOX2)/(QUCP-2) ratio of greater than 1 indicates an increase in the amount of mitochondrial DNA, and reflects an increase in the number of intracellular mitochondria.

[1] = Solubility of the isolated vandaterosides; assay type: physicochemical
[2] = system: keratinocyte differentiation proteins (transglutaminase, involucrin, desmoglein 1); assay: Stimulation of the differentiation of normal human keratinocytes (immunolabeling of differentiation proteins); assay type: cell-based; settings: NHKs, 12 μg/ml, treatment 5 days
Procedure: (§1) The NHKs are cultured at passage 3 in complete KSFM medium in a T75 flask. At the pre-confluence stage, the NHKs are trypsinized and seeded in a proportion of 20 000 cells per well in 8-well Lab-Tek II culture systems (Nalge Nunc International), 4 wells per treatment condition. At 80% confluence, the cells are treated for 5 days with the various compositions of active agents (VT1, VT2, VT3, each at 12 μg/ml) until the post-confluence stage is reached. Vitactyl® clair (extract of Malva sylvestris, Silab) at 3% is used as a positive control.
(§2) The cells are rinsed with PBS (PBS Tablets, Invitrogen GIBCO) and then fixed with formalin (Formalin Solution, 10%, Neutral Buffered, Sigma) for 10 minutes.
(§3) After rinsing with PBS, the culture chambers are filled with a 0.1% Triton solution (Triton X-100, Sigma) for 10 minutes in order to permeabilize the membranes, and then rinsed twice with PBS. The cells are then covered with a solution of PBS/1% BSA (BSA, Sigma) for 30 minutes at ambient temperature. The PBS/BSA solution is removed from the slides by inclining them on absorbent paper. […]
(§4) For each condition, four photos are taken in green fluorescence (expression of the markers) with the ×20 objective. […]
(§5) The photos are analyzed using the Leica QWin image analysis software. A program is created in order to quantify the expression of these differentiation markers.

[3] = system: mitochondrial dehydrogenases (complex I and complex II) of normal human keratinocytes (NHKs); assay: Stimulation of mitochondrial dehydrogenases on keratinocytes (XTT conversion to formazan); assay type: cell-based; settings: treatment 48 h; for Stimulation of mitochondrial dehydrogenase activity / mitochondrial respiratory functions (XTT): NHKs without irradiation, 6.25 to 0.78 μg/ml
Procedure: Normal human keratinocytes (NHKs), isolated from eyelids of 37-year-old Caucasian women, are cultured at passage 3 in complemented (Invitrogen) Keratinocyte Serum Free Medium (KSFM, Invitrogen) supplemented with 5% of fetal calf serum (FCS, Invitrogen).
The NHKs are seeded in 96-well plates (Greiner Bio One) in a proportion of 1.10^4 cells/well, and then incubated at 37° C., 5% CO2 for 24 h. These cells are then treated, after UVB irradiation (60 mJ/cm^2 Vilbeit-Lourmat irradiator) or without irradiation, with serial dilutions of the VT1, VT2 and VT3 compounds (from 6.25 to 0.78 μg/ml) diluted in DMSO (sigma) 0.1% v/v final concentration. The plates are incubated at 37° C., 5% CO2. The untreated cells containing 0.1% v/v of DMSO are considered to be a negative control. After treatment for 48 h, the supernatants are removed and the XTT solution (Cell proliferation kit II, Roche Diagnostic) is deposited in each well in order to determine the overall activity of the mitochondrial dehydrogenases. This activity is evaluated by means of the conversion of an XTT tetrazolium salt to soluble formazan, via a cell mechanism which calls for the enzymatic activities of the glycolytic NAD(P)H dehydrogenase (complex I) and of succinate dehydrogenase (complex II), which are constituents of the mitochondrial respiratory chain. The amount of colored formazan (determined by reading optical density at 450 nm) is directly related, firstly, to the enzymatic activity of the mitochondrial dehydrogenases and, secondly, to the amount of metabolically active cells (Roehm et al. J. Immunol. Methods, 1991; 142: 257-265). […] The 96-well plates are read at 450 nm with a spectrofluorometer (SpectraFluor Plus, Tecan). […]
The results are expressed as mean of the optical densities (OD) at 450 nm and standardized relative to the total concentration of cell proteins (expressed in μg/ml), which makes it possible to measure only the activity of the dehydrogenases and to dispel with the impact of cell proliferation on the measurement of the ODs obtained. […]

involucrin = assay: Involucrin expression in normal human keratinocytes (immunolabeling); assay type: cell-based; settings: NHKs, 12 μg/ml, treatment 5 days
Procedure: as §1, §2, §3, §4, §5

[4] = concentrations tested other than VT1 at 6.25 μg/ml

| Dose effect on cytochrome C oxidase activity (cytochrome C oxidase; HaCaT, 6.25 to 0.78 μg/ml, 3 h) | Solubility in MeOH and DMSO [1] | Solubility in water ([1]; water) | Stimulation of keratinocyte differentiation protein expression compared with the negative control [2] | Cytochrome C oxidase activity level compared with resveratrol (cytochrome C oxidase; HaCaT, 1.56 μg/ml (2 μM), 3 h, versus resveratrol 11.41 μg/ml (50 μM)) | Concentration at which a gel forms in water ([1]; water) | SMILES | Activation of cytochrome C oxidase activity (cytochrome C oxidase; 6.25 to 0.78 μg/ml) | Activation of mitochondrial biogenesis (increase in number of intracellular mitochondria) (HaCaT cells; 6.25 μg/ml, the exception means activation was seen) | Activation of mitochondrial biogenesis (increase in number of intracellular mitochondria) (HaCaT cells; [4]) | Stimulation of mitochondrial dehydrogenase activity / mitochondrial respiratory functions (XTT) [3] | Involucrin expression compared with positive control Vitactyl clair at 3% (involucrin) | Stimulation of the activity of the dehydrogenases relative to the negative control ([3]; NHKs, 0.78 μg/ml (1 μM), negative control DMSO 0.1%) |
| --- | --- | --- | --- | --- | --- | --- | --- | --- | --- | --- | --- | --- |
| A dose effect is observed | soluble | low solubility | most effective |  |  | O=C(CC(O)(Cc1ccc(O)cc1)C(=O)O)OCc1ccc(O[C@@H]2O[C@H](CO)C(O)[C@H](O)[C@H]2O)cc1 (stereo partly drawn) [VT1, 4-(4-β-D-glucopyranosyloxybenzyl)-(2R)-2-(p-hydroxybenzyl) malate] | stimulatory effect | with the exception of VT1 at 6.25 μg/ml | neither of the two compounds induces an activation of mitochondrial biogenesis | most effectively stimulate |  |  |
|  | soluble | low solubility | most effective | comparable to resveratrol | approximately 10 mM | O=C(CC(O)(Cc1ccc(O)cc1)C(=O)OCc1ccc(O[C@@H]2O[C@H](CO)[C@@H](O)[C@H](O)[C@H]2O)cc1)OCc1ccc(O[C@@H]2O[C@H](CO)[C@@H](O)[C@H](O)[C@H]2O)cc1 (stereo partly drawn) [VT2, 1,4-bis(4-β-D-glucopyranosyloxybenzyl)-(2R)-2-(p-hydroxybenzyl) malate] | stimulatory effect; also recorded: best cytochrome C oxidase activator |  | neither of the two compounds induces an activation of mitochondrial biogenesis | most effectively stimulate | greater than that of the positive control | +39% |
|  | soluble | low solubility |  |  |  | O=C(/C=C/c1ccccc1)O[C@H]1[C@H](OC(CC(=O)OCc2ccc(O[C@@H]3O[C@H](CO)[C@@H](O)[C@H](O)[C@H]3O)cc2)(Cc2ccc(O)cc2)C(=O)OCc2ccc(O[C@@H]3O[C@H](CO)[C@@H](O)[C@H](O)[C@H]3O)cc2)O[C@H](CO)[C@@H](O)[C@@H]1O (stereo partly drawn) [VT3, 14-bis(4-β-D-glucopyranosyloxybenzyl)-(2R)-2-(2-β-D-glucopyranosyl-3-trans-cinnamoyl ester)-2-(p-hydroxybenzyl)malate] |  |  |  |  |  |  |
